These results are taken from PubChem BioAssay (NCI).

Several values for one entry are separate records, joined by “and”; a condition that tells them apart may be missing. Equal values may be shown once.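 Exposure lasted 48 hours, with cells grown in 96-well plates and compounds tested at five concentrations. Here, GI50 denotes the concentration required for 50% inhibition of growth. Definition used: TGI = concentration required for complete inhibition of growth.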 A value given as a limit tells only on which side of the number the result lay.

Among the test systems are SK-MEL-5 melanoma; U251 CNS; XF 498 CNS; SNB-75 CNS; UO-31 renal; SF-268 CNS; K-562 leukemia; KM20L2 colon; HOP-62 NSCLC; OVCAR-4 ovarian; DU-145 prostate.
Experiment in all cases: growth of human tumour cells (NCI), 48 h

For `COc1ccc(/C(Cl)=C/c2cc(OC)ccc2OC)cc1`, the TGI in the assay with SK-MEL-5 melanoma, in the assay with U251 CNS, in the assay with XF 498 CNS, with SNB-75 CNS, in the assay on UO-31 renal and with SF-268 CNS was over 100 µM in each case. In addition, the TGI in the assay on K-562 leukemia, in the assay on KM20L2 colon, in the assay with HOP-62 NSCLC and with OVCAR-4 ovarian was over 100 µM throughout.

`CN(C)CCCNc1ccc2nnn3c4ccc(O)cc4c(=O)c1c23`: the TGI was 19.7 µM in the assay on SK-MEL-5 melanoma; 18.7 µM with U251 CNS; 20.2 µM with SNB-75 CNS; 9.79 µM in the assay with UO-31 renal; 16.3 µM with SF-268 CNS; over 57.2 µM in the assay on K-562 leukemia. For the same compound, the TGI is 17.1 µM in the assay on KM20L2 colon, 18.6 µM in the assay with DU-145 prostate, 17.6 µM in the assay on HOP-62 NSCLC and 18.5 µM in the assay with OVCAR-4 ovarian.

Turning to `O=C1c2c(O)cccc2-c2nn(CCNCCO)c3ccc(NCCNCCO)c1c23`, the TGI with SK-MEL-5 melanoma amounted to 1.13 µM; with U251 CNS, 0.195 µM; in the assay with XF 498 CNS, 0.379 µM; in the assay on SNB-75 CNS it was 1.14 µM; in the assay on UO-31 renal, 10.2 µM; in the assay with SF-268 CNS, 1.17 µM. Also, the TGI in the assay with KM20L2 colon is 9.29 µM; in the assay with DU-145 prostate it was 0.0707 µM; in the assay on HOP-62 NSCLC it was 0.63 µM; in the assay on OVCAR-4 ovarian, 2.97 µM.

With `CC1=NN(C(=O)c2ccc(Cl)cc2)C(=O)/C1=C/c1ccccc1O`, the TGI with SK-MEL-5 melanoma, in the assay with U251 CNS, in the assay on XF 498 CNS, with UO-31 renal, in the assay on SF-268 CNS and in the assay with K-562 leukemia was over 100 µM in each case. The TGI with KM20L2 colon, with HOP-62 NSCLC and with OVCAR-4 ovarian was over 100 µM throughout.

Take `CN=C(/N=c1\ssc(=NC)n1C)N(C)C`: the TGI in the assay with SK-MEL-5 melanoma, in the assay on U251 CNS, with XF 498 CNS, with SNB-75 CNS, in the assay with UO-31 renal and in the assay with SF-268 CNS was over 100 µM throughout. Moreover, the TGI with K-562 leukemia, with KM20L2 colon and in the assay with OVCAR-4 ovarian was over 100 µM in each case.

As to `CC1=C2C(=CO[C@H](C)[C@H]2C)C(=O)C(C(=O)O)=C1O`, the GI50 with SK-MEL-5 melanoma is 20.4 µM; in the assay with U251 CNS, 18.8 µM; in the assay with SNB-75 CNS it was 21.2 µM; with UO-31 renal, 22.3 µM; with SF-268 CNS, 22 µM; in the assay on K-562 leukemia, 36.9 µM. In addition, the GI50 with HOP-62 NSCLC was 29 µM. Also, the TGI was 35.7 µM and 45.4 µM in the assay with SK-MEL-5 melanoma; 43.4 µM and 41 µM in the assay with U251 CNS; 13.6 µM in the assay on XF 498 CNS; 111 µM and > 62.1 µM with SNB-75 CNS; 106 µM and 50.6 µM in the assay with UO-31 renal; 59.2 µM and 38.2 µM in the assay on SF-268 CNS. In addition, the TGI in the assay with K-562 leukemia was 54.8 µM; in the assay on KM20L2 colon, 71.7 µM; with DU-145 prostate it was 68.3 µM; with HOP-62 NSCLC it was 44.2 µM and 79.3 µM; in the assay with OVCAR-4 ovarian, > 80.5 µM and 87.5 µM.

On to `COc1cccc(C=O)c1[O-].[O]=[U](=[O])([OH2+])[OH2+]`, for which the TGI in the assay on SK-MEL-5 melanoma was over 100 µM; with U251 CNS, 59.1 µM; with SNB-75 CNS, 81.3 µM; in the assay with UO-31 renal, over 100 µM; with SF-268 CNS, over 100 µM; in the assay with K-562 leukemia, over 100 µM. Moreover, the TGI in the assay on KM20L2 colon, in the assay with HOP-62 NSCLC and in the assay with OVCAR-4 ovarian was over 100 µM each time.

Consider `NCc1cccc(O)c1O`, for which the TGI with SK-MEL-5 melanoma, with U251 CNS, with XF 498 CNS, in the assay on SNB-75 CNS, in the assay with UO-31 renal and with SF-268 CNS was over 100 µM throughout. In addition, the TGI in the assay with K-562 leukemia, in the assay with KM20L2 colon, in the assay with HOP-62 NSCLC and in the assay on OVCAR-4 ovarian was over 100 µM in each case.

On to `O=[N+]([O-])c1cccc(N=Nc2c(O)c(S(=O)(=O)O)cc3cc(S(=O)(=O)O)ccc23)c1`, for which the TGI in the assay on SK-MEL-5 melanoma, in the assay on U251 CNS, in the assay with SNB-75 CNS, in the assay on UO-31 renal, with SF-268 CNS and with K-562 leukemia was over 100 µM in each case. For the same compound, the TGI in the assay with DU-145 prostate, in the assay on HOP-62 NSCLC and with OVCAR-4 ovarian was over 100 µM in each case.

For `CC(C)(C)CC(C)(C)c1cc(O)c(O)c(CN2CCCCC2)c1`, the TGI in the assay with SK-MEL-5 melanoma was found to be 28.9 µM; with U251 CNS, 24.3 µM; in the assay with SNB-75 CNS it was 37.3 µM; in the assay with UO-31 renal, 26.1 µM; in the assay with SF-268 CNS, 25.3 µM; with K-562 leukemia, 19.3 µM. The values for the TGI in the assay with DU-145 prostate, with HOP-62 NSCLC and in the assay with OVCAR-4 ovarian were 30.5 µM, 30.1 µM and 42 µM, respectively.

Take `CC1(C)CC(=O)C2(CC(CSc3ccccc3)C(CS(=O)(=O)c3ccccc3)C2)C(=O)C1` (stereo unspecified): the TGI in the assay with SK-MEL-5 melanoma, in the assay on U251 CNS, in the assay with SNB-75 CNS, in the assay with UO-31 renal, in the assay on SF-268 CNS and in the assay with K-562 leukemia was over 100 µM throughout. Besides, the TGI with DU-145 prostate, with HOP-62 NSCLC and in the assay on OVCAR-4 ovarian was over 100 µM throughout.

Turning to `CN(C)CCn1c(CO)nc2c1c(=O)n(C)c(=O)n2C`, the TGI in the assay on SK-MEL-5 melanoma, in the assay with U251 CNS, in the assay with SNB-75 CNS, in the assay on UO-31 renal, in the assay on SF-268 CNS and in the assay with K-562 leukemia was over 100 µM in each case. Besides, the TGI in the assay on DU-145 prostate, in the assay on HOP-62 NSCLC and in the assay on OVCAR-4 ovarian was over 100 µM in each case.

On to `Cc1cc2c([nH]c3ccccc32)c(O)c1-c1c(C)cc2c([nH]c3ccccc32)c1O`, for which the GI50 is 16.5 µM in the assay on SK-MEL-5 melanoma, 13 µM in the assay with UO-31 renal and 12.3 µM in the assay on K-562 leukemia. Moreover, the TGI with SK-MEL-5 melanoma was 30.1 µM; with U251 CNS it was 23.7 µM; with SNB-75 CNS it was 27.5 µM; with UO-31 renal it was 25.7 µM; in the assay with SF-268 CNS, 27.4 µM; with K-562 leukemia, 25.9 µM. For the same compound, the TGI in the assay on DU-145 prostate was 25.7 µM; with HOP-62 NSCLC, 31.5 µM; in the assay on OVCAR-4 ovarian, 28.8 µM.

For `CCOC(=O)c1cc(C)nc2c1c(=O)n(-c1ccccc1)c(=O)n2CCCCN1CCN(c2ccccc2)CC1`, the TGI was over 100 µM with SK-MEL-5 melanoma; over 100 µM in the assay on U251 CNS; over 100 µM with SNB-75 CNS; 65.2 µM with UO-31 renal; over 100 µM in the assay on SF-268 CNS; over 100 µM in the assay on K-562 leukemia. The TGI in the assay with DU-145 prostate, with HOP-62 NSCLC and in the assay on OVCAR-4 ovarian was over 100 µM in each case.

For the compound `Cc1nn(-c2ccccc2)c(C)c1/C=N/N=C1\S/C(=C\c2ccc(Cl)cc2)C(=O)N1c1ccccc1`, the TGI in the assay with SK-MEL-5 melanoma is over 100 µM; in the assay with U251 CNS it was over 100 µM; with SNB-75 CNS it was 71.8 µM; in the assay with UO-31 renal, over 100 µM; in the assay with SF-268 CNS, over 100 µM; with K-562 leukemia, over 100 µM. Besides, the TGI is over 100 µM in the assay with DU-145 prostate, over 100 µM in the assay on HOP-62 NSCLC and 4.74 µM in the assay on OVCAR-4 ovarian.

On to `CC(C)C(C/C=C1\CC(CO)(COC(=O)C2CCCCC2)OC1=O)C(C)C` (stereo unspecified), for which the TGI is over 100 µM with SK-MEL-5 melanoma; 44.1 µM in the assay on U251 CNS; 26.5 µM with SNB-75 CNS; 32.1 µM in the assay with UO-31 renal; 33.5 µM with SF-268 CNS; 55.6 µM in the assay on K-562 leukemia. Moreover, the TGI with DU-145 prostate turned out to be 26.9 µM; in the assay on HOP-62 NSCLC, 27.5 µM; in the assay with OVCAR-4 ovarian, 36 µM.

`Cc1nnc2n1N=C(c1ccc(Cl)cc1Cl)/C(=C/c1ccc(-c3ccc([N+](=O)[O-])cc3Cl)o1)S2`: the GI50 in the assay with SK-MEL-5 melanoma is 16.5 µM; in the assay with U251 CNS it was 14.9 µM; in the assay on SNB-75 CNS, 73.2 µM; in the assay on UO-31 renal it was 14.8 µM; with SF-268 CNS it was 24.3 µM; in the assay on K-562 leukemia, 13.6 µM. The values for the GI50 with DU-145 prostate, in the assay with HOP-62 NSCLC and in the assay with OVCAR-4 ovarian were 18.7 µM, over 100 µM and 33.4 µM, respectively. Further, the TGI in the assay with SK-MEL-5 melanoma was 32.6 µM; in the assay with U251 CNS it was 30.2 µM; in the assay on SNB-75 CNS, over 100 µM; in the assay on UO-31 renal, 31 µM; in the assay with SF-268 CNS it was 66.7 µM; in the assay on K-562 leukemia, 26.9 µM. Moreover, the TGI with DU-145 prostate is 38.9 µM; in the assay with HOP-62 NSCLC it was over 100 µM; in the assay on OVCAR-4 ovarian, over 100 µM.

In the case of `COc1ccc(C(SC2C(O)C(CO)OC2n2ccc(=O)[nH]c2=O)(c2ccccc2)c2ccc(OC)cc2)cc1` (stereo unspecified), the TGI in the assay on SK-MEL-5 melanoma was 29 µM; with U251 CNS it was 30 µM; in the assay on SNB-75 CNS, 48.9 µM; with UO-31 renal, 33.4 µM; in the assay on SF-268 CNS, 40.1 µM; in the assay on K-562 leukemia, over 100 µM. In addition, the figures for the TGI in the assay with DU-145 prostate, in the assay on HOP-62 NSCLC and in the assay with OVCAR-4 ovarian were 34.4 µM, 40.8 µM and 64.9 µM, respectively.

On to `CCOP(=O)(OCC)/C(=C/c1cccs1)CC(C)=O`, for which the TGI in the assay on SK-MEL-5 melanoma, in the assay on U251 CNS, in the assay with SNB-75 CNS, with UO-31 renal, with SF-268 CNS and in the assay on K-562 leukemia was over 100 µM each time. Further, the TGI in the assay on DU-145 prostate, in the assay on HOP-62 NSCLC and in the assay with OVCAR-4 ovarian was over 100 µM throughout.
